# Laboratory results published in ChEMBL document CHEMBL3808364, “The SAR of brain penetration for a series of heteroaryl urea FAAH inhibitors” (Bioorg Med Chem Lett, 2016).
# The source made the active and inactive calls. The rule behind the calls is not given here.
# Tests used:
# [1] = system: Rattus norvegicus; experiment: Inhibition of FAAH in Sprague-Dawley rat brain homogenate assessed as time duration needed for enzyme activity recovery by measuring [3H]-anandamide hydrolysis at 20 mg/kg by liquid scintillation analysis; format: functional
# [2] = Ratio of drug level in brain to plasma in Sprague-Dawley rat at 20 mg/kg via oral gavage; format: ADME, organism-based; settings: read-out: BPR
# [3] = system: Rattus norvegicus; experiment: Inhibition of FAAH in Sprague-Dawley rat brain homogenate assessed as increase in PEA levels at 0.1 to 100 mg/kg measured 4 hrs post dosing by […]; format: functional, organism-based
# [4] = system: Rattus norvegicus; experiment: Inhibition of FAAH in Sprague-Dawley rat brain homogenate assessed as increase in OEA levels at 0.1 to 100 mg/kg measured 4 hrs post dosing by […]; format: functional, organism-based
# [5] = target: T1, Fatty-acid amide hydrolase 1 (Rattus norvegicus, UniProt P97612); experiment: Apparent inhibition of recombinant rat FAAH expressed in SK-N-MC cells assessed as [3H]-anandamide hydrolysis after 1 hr by liquid scintillation analysis; format: cell-based
# T1 sequence (P97612 whole entry): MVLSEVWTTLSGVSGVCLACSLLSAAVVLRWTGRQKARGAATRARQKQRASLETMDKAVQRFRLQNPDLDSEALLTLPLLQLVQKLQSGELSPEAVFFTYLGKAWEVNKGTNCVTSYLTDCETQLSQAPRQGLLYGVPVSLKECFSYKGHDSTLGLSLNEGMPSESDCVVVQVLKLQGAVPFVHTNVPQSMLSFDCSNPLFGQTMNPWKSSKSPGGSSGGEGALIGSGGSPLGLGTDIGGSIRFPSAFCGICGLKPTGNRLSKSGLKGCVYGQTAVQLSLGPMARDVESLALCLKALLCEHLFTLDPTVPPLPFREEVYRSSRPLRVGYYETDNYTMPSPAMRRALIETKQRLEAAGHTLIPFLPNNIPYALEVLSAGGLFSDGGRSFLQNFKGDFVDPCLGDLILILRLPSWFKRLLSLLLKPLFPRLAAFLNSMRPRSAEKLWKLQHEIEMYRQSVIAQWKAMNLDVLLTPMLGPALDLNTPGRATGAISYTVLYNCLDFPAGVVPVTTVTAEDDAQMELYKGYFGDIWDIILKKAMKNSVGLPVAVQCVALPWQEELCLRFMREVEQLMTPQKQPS
# [6] = system: Rattus norvegicus; experiment: Inhibition of FAAH in Sprague-Dawley rat brain homogenate assessed as increase in PEA levels at 20 mg/kg after 0.5 to 4 hrs by […]; format: functional, organism-based
# [7] = system: Rattus norvegicus; experiment: Inhibition of FAAH in Sprague-Dawley rat brain homogenate assessed as increase in OEA levels at 20 mg/kg after 0.5 to 4 hrs by […]; format: functional, organism-based
# [8] = target: T2, Fatty-acid amide hydrolase 1 (Homo sapiens, UniProt O00519)
# T2 sequence (O00519 whole entry): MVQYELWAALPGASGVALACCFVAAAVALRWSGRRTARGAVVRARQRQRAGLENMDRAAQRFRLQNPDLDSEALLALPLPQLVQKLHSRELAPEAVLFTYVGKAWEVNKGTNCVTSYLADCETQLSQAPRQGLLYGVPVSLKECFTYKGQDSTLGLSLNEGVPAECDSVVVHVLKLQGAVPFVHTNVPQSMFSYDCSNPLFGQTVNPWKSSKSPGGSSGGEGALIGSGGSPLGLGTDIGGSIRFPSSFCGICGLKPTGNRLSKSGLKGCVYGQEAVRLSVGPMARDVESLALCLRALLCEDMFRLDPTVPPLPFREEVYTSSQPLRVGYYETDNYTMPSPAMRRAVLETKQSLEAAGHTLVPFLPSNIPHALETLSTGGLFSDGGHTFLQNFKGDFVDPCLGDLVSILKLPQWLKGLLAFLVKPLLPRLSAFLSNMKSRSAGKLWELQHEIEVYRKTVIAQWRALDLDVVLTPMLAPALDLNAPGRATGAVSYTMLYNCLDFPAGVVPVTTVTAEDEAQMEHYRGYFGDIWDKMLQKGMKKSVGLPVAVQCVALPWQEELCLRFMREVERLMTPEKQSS
# [9] = Clearance in Sprague-Dawley rat; format: ADME, organism-based; settings: in vivo
# [10] = Volume of distribution at Steady state in Sprague-Dawley rat; format: ADME, organism-based; settings: in vivo, read-out: Vdss
# [11] = Oral bioavailability in Sprague-Dawley rat; format: ADME, organism-based; settings: in vivo
# [12] = Dissociation constant, pKa of the compound at pH 7.2; format: physicochemical
# [13] = system: Rattus norvegicus; experiment: Inhibition of FAAH in Sprague-Dawley rat brain homogenate assessed as reduction in residual activity measured as [3H]-anandamide hydrolysis at 20 mg/kg after 30 mins by liquid scintillation analysis; settings: read-out: INH
# [14] = system: Rattus norvegicus; experiment: Inhibition of FAAH in Sprague-Dawley rat brain homogenate assessed as residual activity measured as [3H]-anandamide hydrolysis at 20 mg/kg after 1 hr by liquid scintillation analysis; format: functional
# [15] = system: Rattus norvegicus; experiment: Inhibition of FAAH in Sprague-Dawley rat brain homogenate assessed as residual activity measured as [3H]-anandamide hydrolysis at 20 mg/kg after 4 hrs by liquid scintillation analysis; format: functional
# [16] = system: Plasma; experiment: Drug uptake in Sprague-Dawley rat plasma at 20 mg/kg via oral gavage after 4 hrs by LC-MS/MS analysis; format: ADME, organism-based; settings: in vivo
# [17] = system: Brain; experiment: Drug uptake in Sprague-Dawley rat brain at 20 mg/kg via oral gavage after 4 hrs by LC-MS/MS analysis; format: ADME, organism-based; settings: in vivo
# [18] = Dissociation constant, pKa of the compound; format: physicochemical
# [19] = Ratio of drug level in brain to plasma in Sprague-Dawley rat at 0.6 mg/kg via oral gavage; format: ADME, organism-based; settings: read-out: BPR
# [20] = Ratio of drug level in brain to plasma in Sprague-Dawley rat at 6 mg/kg via oral gavage; format: ADME, organism-based; settings: read-out: BPR
# [21] = system: Rattus norvegicus; experiment: In-vivo reversible inhibition of FAAH in Sprague-Dawley rat brain homogenate assessed as residual activity measured as [3H]-anandamide hydrolysis after 48 hrs by liquid scintillation analysis; format: functional, organism-based
Structure (SMILES),Time [1] [h],Kp [2],IC50 [5] [nM],"FAAH inhibition (PEA level increase), active/inactive [6]",OEA level increase (activity call) [7],IC50 [8] [nM],clearance [9] [mL/min/kg],Vd [10] [L/kg],bioavailability [11] [%],other results
O=C(Nc1cccnc1)N1CCN(Cc2cccc(Oc3ccc(C(F)(F)F)cc3)c2)CC1,24,1.99,,,,,,,,inhibition [3]: Active; inhibition [4]: Active
O=C(Nc1cccnc1)N1CCC(Cc2cccc(Oc3ccc(Cl)cc3)c2)CC1,24,2.26,215,Active,Active,4.3,,,,
O=C(Nc1cnc2ccccn12)N1CCN(Cc2cccc(Oc3ccc(Cl)cc3)c2)CC1,24,,,Active,Active,,63.3,10.7,60,pKa [12]: 6.8; inhibition in vivo at 20 mg/kg [13]: 60%; Activity [14]: < 10%; Activity [15]: <5%
O=C(Nc1cccnc1)N1CCN(Cc2cc(Cl)cc(Oc3ccc(Cl)cc3)c2)CC1,24,1.26,76,Active,Active,8,,,,Drug uptake [16]: Dose-dependent effect; Drug uptake [17]: Dose-dependent effect
O=C(Nc1cnccc1Cl)N1CCN(Cc2cccc(Oc3ccc(F)cc3)c2)CC1,24,0.67,48,Active,Active,3.3,,,,
O=C(Nc1cccnc1)N1CCC(Cc2cccc(Oc3ccc(Cl)cn3)c2)CC1,24,0.45,22,Active,Active,1,,,,
O=C(Nc1cccnc1)N1CCN(Cc2cccc(Oc3ccc(Cl)cc3)c2)CC1,24,2.62,,,,,11.5,3.2,,pKa [18]: 5.25; Kp [19]: 2.62; Kp [20]: 2.62; inhibition [21]: Active
O=C(Nc1noc2ccccc12)N1CCN(Cc2cccc(Oc3ccc(Cl)cc3)c2)CC1,24,,8,Active,Active,,9.33,2.48,44,
N#Cc1ccncc1NC(=O)N1CCN(Cc2cccc(Oc3ccc(Cl)cc3)c2)CC1,24,3.28,17,Active,Active,17,,,,pKa [18]: 1.9
O=C(Nc1nnn[nH]1)N1CCN(Cc2cccc(Oc3ccc(Cl)cc3)c2)CC1,,,,,,,3.33,1.1,100,pKa [12]: 4.9
